Laboratory results reported in ChEMBL document CHEMBL1781969, “4β-[(4-Alkyl)-1,2,3-triazol-1-yl] podophyllotoxins as anticancer compounds: design, synthesis and biological evaluation” (Eur J Med Chem, 2011).
Activity calls are given as the source filed them. No cut-off for these calls is given here.

What was measured:
PC-3 = assay: cells; conditions: Homo sapiens, PC-3, 48 h
Description: Cytotoxicity against human PC3 cells after 48 hrs by sulforhodamine B assay

A549 = assay: cells; conditions: Homo sapiens, A549, 48 h
Description: Cytotoxicity against human A549 cells after 48 hrs by sulforhodamine B assay

MCF7 [1] = assay: cells; conditions: Homo sapiens, MCF7, 48 h
Description: Cytotoxicity against human MCF7 cells after 48 hrs by sulforhodamine B assay

SF-295 = assay: Cytotoxicity against human SF295 cells after 48 hrs by sulforhodamine B assay; type: functional, cell-based; conditions: SF-295, 48 h
HCT-15 = assay: cells; conditions: Homo sapiens, HCT-15, 48 h
Description: Cytotoxicity against human HCT15 cells after 48 hrs by sulforhodamine B assay

HEp-2 = assay: Cytotoxicity against human Hep2 cells after 48 hrs by sulforhodamine B assay; type: functional, cell-based; conditions: HEp-2, 48 h
MCF7 [2] = assay: Cell cycle arrest in human MCF7 cells assessed as accumulation at sub-G1 phase at 1 uM after 24 hrs using propidium iodide staining by flow cytometry (reference value: 7.69%); type: functional
MCF7 [3] = assay: Cell cycle arrest in human MCF7 cells assessed as accumulation in S-phase at 5 uM after 24 hrs using propidium iodide staining by flow cytometry (reference value: 25.29%); type: functional
MCF7 [4] = assay: Cell cycle arrest in human MCF7 cells assessed as accumulation at G1/G0-phase at 5 uM after 24 hrs using propidium iodide staining by flow cytometry (reference value: 47.42%); type: functional
MCF7 [5] = assay: Induction of apoptosis in human MCF7 cells assessed as DNA ladder formation at 1 uM after 24 hrs using ethidium bromide staining by agarose gel electrophoresis; type: functional, cell-based
MCF7 [6] = assay: Cell cycle arrest in human MCF7 cells assessed as accumulation at G2/M-phase at 5 uM after 24 hrs using propidium iodide staining by flow cytometry (reference value: 19.91%); type: functional
MCF7 [7] = assay: Cell cycle arrest in human MCF7 cells assessed as accumulation at sub-G1 phase at 5 uM after 24 hrs using propidium iodide staining by flow cytometry (reference value: 7.69%); type: functional
MCF7 [8] = assay: Cell cycle arrest in human MCF7 cells assessed as accumulation at G1/G0-phase at 1 uM after 24 hrs using propidium iodide staining by flow cytometry (reference value: 47.42%); type: functional
MCF7 [9] = assay: Cell cycle arrest in human MCF7 cells assessed as accumulation at G2/M-phase at 1 uM after 24 hrs using propidium iodide staining by flow cytometry (reference value: 19.91%); type: functional
MCF7 [10] = assay: Cell cycle arrest in human MCF7 cells assessed as accumulation in S-phase at 1 uM after 24 hrs using propidium iodide staining by flow cytometry (reference value: 25.29%); type: functional

Row | SMILES | IC50 (PC-3) [µM] | IC50 (A549) [µM] | IC50 (MCF7 [1]) [µM] | IC50 (SF-295) [µM] | IC50 (HCT-15) [µM] | IC50 (HEp-2) [µM] | Activity (MCF7 [2]) [%] | Activity (MCF7 [3]) [%] | Activity (MCF7 [4]) [%] | Activity (MCF7 [5]) | Activity (MCF7 [6]) [%] | Activity (MCF7 [7]) [%] | Activity (MCF7 [8]) [%] | Activity (MCF7 [9]) [%] | Activity (MCF7 [10]) [%]
1 | COc1cc([C@@H]2c3cc4c(cc3[C@@H](n3cc(CO)nn3)[C@H]3COC(=O)[C@H]23)OCO4)cc(OC)c1O | 8.2 | 18 | 0.6 | 15 | 18 | 6.7 |  |  |  |  |  |  |  |  | 
2 | CCCCCCCc1cn([C@@H]2c3cc4c(cc3[C@@H](c3cc(OC)c(OC)c(OC)c3)[C@H]3C(=O)OC[C@@H]32)OCO4)nn1 | 23 | 36 | 6.4 | 25 | 45 | 9.8 |  |  |  |  |  |  |  |  | 
3 | CCc1cn([C@@H]2c3cc4c(cc3[C@@H](c3cc(OC)c(OC)c(OC)c3)[C@H]3C(=O)OC[C@@H]32)OCO4)nn1 | 0.03 | 35 | 0.4 | 1.8 | 0.4 | 0.06 | 69.34 | 2.84 | 16.28 | Active | 1.74 | 80.1 | 22.27 | 1.96 | 5.99
4 | CCCc1cn([C@@H]2c3cc4c(cc3[C@@H](c3cc(OC)c(O)c(OC)c3)[C@H]3C(=O)OC[C@@H]32)OCO4)nn1 | 0.2 | 27 | 5.7 | 2.3 | 0.8 | 2.9 |  |  |  |  |  |  |  |  | 
5 | CCCCCCCCc1cn([C@@H]2c3cc4c(cc3[C@@H](c3cc(OC)c(OC)c(OC)c3)[C@H]3C(=O)OC[C@@H]32)OCO4)nn1 | 17 | > 100 | 9.3 | 14 | > 100 | 18 |  |  |  |  |  |  |  |  | 
6 | CCCc1cn([C@@H]2c3cc4c(cc3[C@@H](c3cc(OC)c(OC)c(OC)c3)[C@H]3C(=O)OC[C@@H]32)OCO4)nn1 | 5.1 | 39 | 1.4 | 3.6 | 0.03 | 1.6 | 55.65 | 11.44 | 10.56 | Active | 1.07 | 78.16 | 27.81 | 3.39 | 16.17
7 | CCCCCCCCCCc1cn([C@@H]2c3cc4c(cc3[C@@H](c3cc(OC)c(O)c(OC)c3)[C@H]3C(=O)OC[C@@H]32)OCO4)nn1 | 19 | 30 | 11 | 13 | 15 | 19 |  |  |  |  |  |  |  |  | 
8 | COc1cc([C@@H]2c3cc4c(cc3[C@@H](O[C@@H]3O[C@@H]5CO[C@@H](C)O[C@H]5[C@H](O)[C@H]3O)[C@H]3COC(=O)[C@H]23)OCO4)cc(OC)c1O [ETOPOSIDE] |  |  | 19 | 13.5 | 7.15 |  |  |  |  |  |  |  |  |  | 
9 | CCc1cn([C@@H]2c3cc4c(cc3[C@@H](c3cc(OC)c(O)c(OC)c3)[C@H]3C(=O)OC[C@@H]32)OCO4)nn1 | 0.06 | 17 | 0.04 | 4.8 | 1.9 | 0.05 |  |  |  |  |  |  |  |  | 
10 | CCCCCCc1cn([C@@H]2c3cc4c(cc3[C@@H](c3cc(OC)c(O)c(OC)c3)[C@H]3C(=O)OC[C@@H]32)OCO4)nn1 | 8.7 | 26 | 19 | 18 | 11 | > 100 |  |  |  |  |  |  |  |  | 
11 | CCCCCCc1cn([C@@H]2c3cc4c(cc3[C@@H](c3cc(OC)c(OC)c(OC)c3)[C@H]3C(=O)OC[C@@H]32)OCO4)nn1 | 6.4 | 35 | 8.6 | 10 | 27 | 10 |  |  |  |  |  |  |  |  | 
12 | CCCCCc1cn([C@@H]2c3cc4c(cc3[C@@H](c3cc(OC)c(O)c(OC)c3)[C@H]3C(=O)OC[C@@H]32)OCO4)nn1 | 4.7 | 26 | 14 | 4.3 | 2.1 | 21 |  |  |  |  |  |  |  |  | 
13 | CCCCCCCCc1cn([C@@H]2c3cc4c(cc3[C@@H](c3cc(OC)c(O)c(OC)c3)[C@H]3C(=O)OC[C@@H]32)OCO4)nn1 | 5.1 | > 100 | 11 | 5.7 | 13 | 3.8 |  |  |  |  |  |  |  |  | 
14 | CCCCc1cn([C@@H]2c3cc4c(cc3[C@@H](c3cc(OC)c(OC)c(OC)c3)[C@H]3C(=O)OC[C@@H]32)OCO4)nn1 | 6.6 | 82 | 9.8 | 8.1 | 11 | 9.6 |  |  |  |  |  |  |  |  | 
15 | CCCCCCCCCCc1cn([C@@H]2c3cc4c(cc3[C@@H](c3cc(OC)c(OC)c(OC)c3)[C@H]3C(=O)OC[C@@H]32)OCO4)nn1 | 5.5 | > 100 | 5.7 | 6.2 | 29 | 5.8 |  |  |  |  |  |  |  |  | 
16 | CCCCCc1cn([C@@H]2c3cc4c(cc3[C@@H](c3cc(OC)c(OC)c(OC)c3)[C@H]3C(=O)OC[C@@H]32)OCO4)nn1 | 8.4 | 39 | 9.5 | 24 | 11 | 7.7 |  |  |  |  |  |  |  |  | 
17 | CCCCc1cn([C@@H]2c3cc4c(cc3[C@@H](c3cc(OC)c(O)c(OC)c3)[C@H]3C(=O)OC[C@@H]32)OCO4)nn1 | 12 | 35 | 20 | 21 | 34 | 17 |  |  |  |  |  |  |  |  | 
18 | COc1cc([C@@H]2c3cc4c(cc3[C@@H](n3cc(CO)nn3)[C@H]3COC(=O)[C@H]23)OCO4)cc(OC)c1OC | 0.06 | > 100 | 0.01 | 2.1 | 15 | 0.06 |  |  |  |  |  |  |  |  | 
19 | CCCCCCCc1cn([C@@H]2c3cc4c(cc3[C@@H](c3cc(OC)c(O)c(OC)c3)[C@H]3C(=O)OC[C@@H]32)OCO4)nn1 | 5.8 | 45 | 13 | 10 | 15 | 6 |  |  |  |  |  |  |  |  | 
